Counter-ions that a name gives are not always drawn. Like-named read-outs stand apart in the source and are kept apart here.
Key:
plasmin = plasmin (Homo sapiens, UniProt P00747); experiment: In vitro selectivity, human proteases: plasmin; assay type: biochemical; settings: up to 100 μM
From the text: (§1) In order to determine the in vitro selectivity of 1-[(3-cyano-pyridin-2-yl)methyl]-3-methyl-7-(2-butyn-1-yl)-8-[3-(R)-amino-piperidin-1-yl]-xanthine, the ability of this compound to inhibit a number of human proteases was investigated as described in Thomas et al. (2008), J. Pharmacol. Exp. Ther., vol. 325, p. 175-182, chapter In vitro DPP-4 Inhibition Assay, p. 176.

alanine-amino-peptidase = alanine-amino-peptidase (Homo sapiens, UniProt P15144); experiment: In vitro selectivity, human proteases: alanine-amino-peptidase; assay type: biochemical; settings: up to 100 μM
From the text: as §1

amino-peptidase P = experiment: In vitro selectivity, human proteases: amino-peptidase P; assay type: biochemical; settings: up to 100 μM
From the text: as §1

[1] = test system: normoglycaemic C57B1/6J mice; experiment: Oral glucose tolerance test (acute and delayed) in normoglycaemic mice; assay type: in vivo, mouse; settings: for ED50: Mus musculus, po, read-out: ED50 for lowering the glucose AUC
Experimental: The effect of 1-[(3-cyano-pyridin-2-yl)methyl]-3-methyl-7-(2-butyn-1-yl)-8-[3-(R)-amino-piperidin-1-yl]-xanthine on glucose tolerance in normoglycaemic C57B1/6J mice was assessed according to the following protocol of an oral glucose tolerance test (OGTT).
Male C57B1/6J mice (C57BL/6J@Rj) were obtained from Janvier (France). Animals were fed ad libitum with a standard pelleted diet (Diet No. 3438 [containing 19% protein, 4.5% fat], Provimi Kliba, Switzerland) and had free access to water. Animals were individually housed with a 12 h/12 h light/dark cycle (lights out between 6 p.m. and 6 a.m.). The mice were used for the experiments at 9 weeks of age.
For the determination of the acute oral glucose tolerance test, a basal blood sample (pre-dose) was obtained in the morning from overnight fasted C57B1/6J mice (n=7 per group) by cutting the tip of the tail without anaesthesia. Subsequently, the groups received a single oral administration of either vehicle or 1-[(3-cyano-pyridin-2-yl)methyl]-3-methyl-7-(2-butyn-1-yl)-8-[3-(R)-amino-piperidin-1-yl]-xanthine monohydrochloride at doses between 0.1 and 10 mg/kg bw, followed 45 min later by an oral administration of a glucose solution (2 g/kg bw, application volume 10 ml/kg bw). Additional blood samples were taken from the tip of the tail 30 min, 60 min, 90 min, 120 min, and 180 min after the glucose load, and blood glucose was measured. A final blood sample was drawn from the retrobulbal venous plexus under isoflurane anaesthesia 30 minutes after the last bleeding from the tail. EDTA plasma was prepared from this blood sample and frozen for determination of DPP-IV activity.
For the determination of the delayed oral glucose tolerance test, C57B1/6J mice (n=5 per group) were orally administered with either vehicle or 1-[(3-cyano-pyridin-2-yl)methyl]-3-methyl-7-(2-butyn-1-yl)-8-[3-(R)-amino-piperidin-1-yl]-xanthine monohydrochloride at doses between 0.1 and 10 mg/kg bw in the afternoon before the oral glucose tolerance test. […] Additional blood samples were taken from the tip of the tail 30 min, 60 min, 90 min, 120 min, and 180 min after the glucose load, and blood glucose was measured. […]
The two-sided unpaired Student t-test was used for statistical comparison of the control group and the active groups with the 5% level as the limit of statistical significance (*, P <0.05; **, P<0.01; ***, P<0.001). […] Changes from baseline (pre-dose value) within each group were analyzed by a paired Student t-test.
The area under the curve (AUC) for the time course of blood glucose concentrations during an OGTT was calculated by the trapezoidal rule after correction for the baseline values.
ED50 values were calculated by nonlinear regression analysis with a Hill coefficient of 1. […]

[2] = Single dose study (1.0/5.0/10.0 mg/kg) in cats: adverse events; assay type: in vivo, cat; settings: single oral 1, 5, 10 mg/kg
Experimental: The aim of this study was to investigate the PK/PD behaviour of 1-[(3-cyano-pyridin-2-yl)methyl]-3-methyl-7-(2-butyn-1-yl)-8-[3-(R)-amino-piperidin-1-yl]-xanthine in the cat following a single oral administration of 0, 1, 5 and 10 mg/kg body weight (dosages were based on the free base: 1 mg 1-[(3-cyano-pyridin-2-yl)methyl]-3-methyl-7-(2-butyn-1-yl)-8-[3-(R)-amino-piperidin-1-yl]-xanthine monohydrochloride corresponds to 0.923 mg 1-[(3-cyano-pyridin-2-yl)methyl]-3-methyl-7-(2-butyn-1-yl)-8-[3-(R)-amino-piperidin-1-yl]-xanthine free base).
Twelve clinically healthy male adult domestic short hair cats with a body weight range of 3.5-4.7 kg were used in this study. All animals were treated orally once via a stomach tube. Blood samples for pharmacokinetic and pharmacodynamic (DPP IV activity) investigations were drawn at 0 h (i.e. prior to treatment), 30 min as well as 1, 2, 4, 8, 8.5, 9, 12, 24, 36, 48, 72, 84 and 96 h after treatment. Blood samples for pharmacodynamic (glucagon-like peptide 1 concentrations) investigations were drawn at −16 (i.e. prior to feeding), −15.5, −15 h as well as at 8 h (i.e. prior to feeding), 8.5 and 9 h after treatment.

Chain of plasmin (P00747 581-810 limits assumed): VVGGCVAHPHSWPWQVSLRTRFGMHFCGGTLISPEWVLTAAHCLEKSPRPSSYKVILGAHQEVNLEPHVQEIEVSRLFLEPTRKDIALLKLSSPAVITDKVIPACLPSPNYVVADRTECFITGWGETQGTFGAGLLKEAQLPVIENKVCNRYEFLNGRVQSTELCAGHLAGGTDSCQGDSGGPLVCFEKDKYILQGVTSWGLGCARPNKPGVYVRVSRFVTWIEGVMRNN
Chain of plasmin (P00747 97-580 partner limits assumed): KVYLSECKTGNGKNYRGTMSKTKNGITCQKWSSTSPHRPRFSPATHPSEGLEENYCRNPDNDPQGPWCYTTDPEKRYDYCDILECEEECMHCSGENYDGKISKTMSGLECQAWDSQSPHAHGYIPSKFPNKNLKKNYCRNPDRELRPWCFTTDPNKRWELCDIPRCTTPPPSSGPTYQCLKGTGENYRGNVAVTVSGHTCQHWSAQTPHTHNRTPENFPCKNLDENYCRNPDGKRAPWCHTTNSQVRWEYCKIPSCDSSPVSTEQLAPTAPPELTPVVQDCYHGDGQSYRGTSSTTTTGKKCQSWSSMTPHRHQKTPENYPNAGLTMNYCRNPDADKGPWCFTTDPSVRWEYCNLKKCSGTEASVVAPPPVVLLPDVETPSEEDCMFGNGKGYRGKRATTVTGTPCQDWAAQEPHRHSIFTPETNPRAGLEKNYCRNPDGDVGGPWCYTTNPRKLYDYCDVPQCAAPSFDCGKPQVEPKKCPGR
Chain of alanine-amino-peptidase (P15144 whole entry): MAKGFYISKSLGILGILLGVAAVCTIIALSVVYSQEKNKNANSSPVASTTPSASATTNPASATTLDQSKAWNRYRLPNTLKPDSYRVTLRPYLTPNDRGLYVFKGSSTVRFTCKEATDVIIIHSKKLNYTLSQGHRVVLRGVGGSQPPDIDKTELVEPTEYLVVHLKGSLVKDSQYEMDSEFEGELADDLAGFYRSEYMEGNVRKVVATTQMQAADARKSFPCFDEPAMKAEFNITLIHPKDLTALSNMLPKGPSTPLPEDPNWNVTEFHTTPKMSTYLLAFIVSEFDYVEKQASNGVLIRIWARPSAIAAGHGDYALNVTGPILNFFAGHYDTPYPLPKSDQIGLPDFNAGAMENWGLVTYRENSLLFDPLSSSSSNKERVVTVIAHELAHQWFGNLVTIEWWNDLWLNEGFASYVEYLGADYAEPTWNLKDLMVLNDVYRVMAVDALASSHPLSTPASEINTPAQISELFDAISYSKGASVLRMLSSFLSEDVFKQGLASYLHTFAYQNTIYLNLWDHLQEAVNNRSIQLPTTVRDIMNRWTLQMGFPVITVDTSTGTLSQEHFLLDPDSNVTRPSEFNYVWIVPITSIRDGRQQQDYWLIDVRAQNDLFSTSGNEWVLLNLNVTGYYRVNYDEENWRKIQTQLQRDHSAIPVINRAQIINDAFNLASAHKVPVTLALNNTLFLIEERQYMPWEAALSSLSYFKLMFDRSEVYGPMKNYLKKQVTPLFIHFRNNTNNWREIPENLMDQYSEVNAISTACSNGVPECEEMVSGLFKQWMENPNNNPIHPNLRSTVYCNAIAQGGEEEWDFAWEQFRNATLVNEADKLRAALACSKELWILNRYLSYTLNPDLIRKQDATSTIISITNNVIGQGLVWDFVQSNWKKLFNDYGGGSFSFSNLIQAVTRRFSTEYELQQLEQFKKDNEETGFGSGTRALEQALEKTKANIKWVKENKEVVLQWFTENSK

CC#CCn1c(N2CCC[C@@H](N)C2)nc2c1c(=O)n(Cc1ncccc1C#N)c(=O)n2C [1-[(3-cyano-pyridin-2-yl)methyl]-3-methyl-7-(2-butyn-1-yl)-8-[3-(R)-amino-piperidin-1-yl]-xanthine monohydrochloride]
inhibitory effect on plasmin (plasmin): did not exert any inhibitory effect | inhibitory effect on alanine-amino-peptidase (alanine-amino-peptidase): did not exert any inhibitory effect | inhibitory effect on amino-peptidase P (amino-peptidase P): did not exert any inhibitory effect | reduction of AUC for glucose excursion in OGTT ([1]; 1 mg/kg 16 hours before OGTT (delayed setting)): 29% | ED50 ([1]; acute setting): 0.2 mg/kg | ED50 ([1]; delayed setting): 0.3 mg/kg | suppression of AUC for glucose excursion in OGTT ([1]; acute dosing of 1 mg/kg): 38% | adverse events [2]: No specific adverse events were observed

Reference: patent US20140228287A1, “1-[(3-CYANO-PYRIDIN-2-YL)METHYL]-3-METHYL-7-(2-BUTYN-1-YL)-8-[3-(R)-AMINO-PIPERIDIN-1-YL]-AXANTHINE FOR THE TREATMENT OF A METABOLIC DISORDER OF A PREDOMINANTLY CARNIVOROUS NON-HUMAN ANIMAL” (BOEHRINGER INGELHEIM VETMEDICA GMBH, priority 2010, published 2014)
